Assay [1] has as its target T1, E166C mutant of β-lactamase I (Bacillus cereus, UniProt P00809, E185C).
T1 construct: made in house; host or cells: B. subtilis 1A304 (φ105MU331)
T1 sequence (P00809 28-306 E185C): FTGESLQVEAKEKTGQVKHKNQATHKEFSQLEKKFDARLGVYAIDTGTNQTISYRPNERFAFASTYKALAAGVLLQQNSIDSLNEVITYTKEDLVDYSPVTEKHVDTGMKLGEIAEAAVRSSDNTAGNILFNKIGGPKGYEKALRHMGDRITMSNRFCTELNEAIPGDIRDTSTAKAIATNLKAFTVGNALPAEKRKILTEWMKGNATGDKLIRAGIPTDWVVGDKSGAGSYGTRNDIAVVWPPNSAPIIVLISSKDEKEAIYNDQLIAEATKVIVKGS
Kind of assay: Spectrophotometric substrate hydrolysis, steady-state kinetics. The format is biochemical. As to conditions: 50 mM potassium phosphate buffer pH 7.0, 20° C. The method, then: (§1) The hydrolytic activities of the wild-type β-lactamase I, E166C and E166Cf mutants towards penicillin G, penicillin V and ampicillin (Sigma) were monitored by the spectrophotometric method. The spectrophotometric measurements were performed on a Perkin Elmer Lambda Bio20 UV/Vis spectrometer. Substrate hydrolysis was monitored at a fixed wavelength: 235 nm for ampicillin, 232 nm for penicillin G and penicillin V. The initial rate of substrate hydrolysis occurring within 5 min was determined in duplicate at each of 6 different substrate concentrations in 50 mM potassium phosphate buffer (pH 7.0) at 20° C. The initial rates determined were then treated as described in Reference 5 to calculate the Michaelis constants (Km) and turnover numbers (kcat) using non-linear regression analysis (equation 1):
(§2) [formula] where v is the initial rate of substrate hydrolysis, Vmax the maximum rate of reaction, [S] the initial substrate concentration, Km the Michaelis constant and kcat=Vmax/[Enzyme].
(§3) The measured steady-state kinetic parameters for hydrolysis of penicillin G, penicillin V and ampicillin by the wild-type β-lactamase I, E166C and E166Cf mutants are summarized in Table 1.

For a further assay, the target named is T2, wild-type β-lactamase I (Bacillus cereus, UniProt P00809).
T2 construct: made in house; host or cells: B. subtilis 1A304 (φ105MU331)
T2 sequence (P00809 28-306): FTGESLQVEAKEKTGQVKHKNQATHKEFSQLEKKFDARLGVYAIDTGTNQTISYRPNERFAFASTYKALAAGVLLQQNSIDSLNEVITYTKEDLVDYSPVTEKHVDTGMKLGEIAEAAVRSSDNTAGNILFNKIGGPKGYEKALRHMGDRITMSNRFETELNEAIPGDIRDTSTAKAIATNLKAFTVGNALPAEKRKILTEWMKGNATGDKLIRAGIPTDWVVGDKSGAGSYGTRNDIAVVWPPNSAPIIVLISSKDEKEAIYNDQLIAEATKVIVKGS
The assay is described as above. The format is biochemical. As to conditions: 50 mM potassium phosphate buffer pH 7.0, 20° C. The protocol: as §1, §2, §3

In assay [2] the target is T3, E. coli TEM-1 β-lactamase (Escherichia coli, UniProt P62593).
T3 construct: made in house; host or cells: E. coli BL21(DE3); whole overnight culture used undiluted, not purified
T3 sequence (P62593 24-286 limits assumed): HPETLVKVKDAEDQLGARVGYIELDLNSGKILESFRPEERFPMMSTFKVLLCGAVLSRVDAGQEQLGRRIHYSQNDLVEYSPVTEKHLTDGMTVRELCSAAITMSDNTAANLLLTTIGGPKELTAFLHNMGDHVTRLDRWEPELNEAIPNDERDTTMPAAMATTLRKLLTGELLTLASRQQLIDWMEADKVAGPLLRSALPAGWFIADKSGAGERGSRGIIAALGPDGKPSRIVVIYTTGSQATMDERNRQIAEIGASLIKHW
Kind of assay: Drug screening: E166Cf fluorescence in presence of bacterial β-lactamase culture. In kind it is biochemical. As to conditions: E. coli TEM-1 culture, undiluted; antibiotic 1.0×10^−4 M; E166Cf 1.2×10^−7 M. Also noted: key: −: Decline in fluorescence signal (presence of beta-lactam hydrolysis); +: No decline in fluorescence signal (absence of beta-lactam hydrolysis). The protocol: The use of the E166Cf enzyme in screening bacterial β-lactamases against various β-lactam antibiotics was investigated. The principle of our method is that when both E166Cf and bacterial β-lactamase are incubated with ‘β-lactamase-unstable’ antibiotics, the fluorescence of the E166Cf enzyme will be suppressed because of the greater catalytic efficiency of the bacterial enzyme. In contrast, when bacterial β-lactamases are screened against ‘β-lactamase-resistant’ antibiotics, the fluorescence of the E166Cf enzyme will be enhanced because of the poor hydrolytic activity of the bacterial enzyme. Thus, any β-lactam antibiotic that causes the labeled enzyme to increase its fluorescence intensity in the presence of bacterial β-lactamases can be used in clinical treatments.
The TEM-1 β-lactamase was expressed in E. coli. BL21(DE3). Preparation of the TEM-1 β-lactamase was performed as follows. A bacterial strain was streaked on an agar plate containing 100 μg/ml ampicillin, and the plate was incubated at 37° C. for 24 h. A single bacterial colony from the plate was inoculated into 100 ml of sterilized LB broth (28 g/l) which was then incubated at 37° C. with shaking at 280 rpm overnight. After overnight incubation, the bacterial culture was harvested and stored at −20° C.
Fluorescence measurements of the E166Cf enzyme in the presence of bacterial cultures and β-lactam antibiotics were performed on a FLUOstar microplate reader (BMG Labtechnologies) equipped with two sample injectors. Excitation and emission filters of 485 and 520 nm respectively were used. For B. cereus penPC β-lactamase, B. licheniformis penP β-lactamase and B. cereus β-lactamase II, the labeled enzymes were mixed with the bacterial cultures, and the mixtures were made up to 300 μl with 50 mM phosphate buffer (pH 7.0) in a 96-well microtiter plate (Corning Costar). For the purpose of comparison, B. subtilis cultures, which produced no β-lactamase, were set up as negative controls. For E. coli. TEM-1 β-lactamase, the labeled enzymes were mixed with the bacterial cultures without dilution. E. coli. cultures, which produced no β-lactamase, were set up as negative controls for comparison. The antibiotics were then added to the bacterial samples by the injectors.
The results from the time-resolved fluorescence measurements of the labeled enzyme (1.2×10^−7 M) in the presence of various bacterial cultures and β-lactam antibiotics (1.0×10^−4 M) are shown in FIGS. 23 to 26.

A further assay addresses T4, E166Cf enzyme (Bacillus cereus, UniProt P00809, E185C).
T4 construct: made in house; host or cells: B. subtilis 1A304 (φ105MU331); then labelled chemically
T4 sequence (P00809 28-306 E185C): T1 sequence (P00809 28-306 E185C)
Kind of assay: Detection of β-lactam antibiotics in milk by E166Cf fluorescence. Particulars: untreated milk; E166Cf 1.2×10^−7 M. The method, then:
Fluorescence measurements of the E166Cf enzyme in milk in the presence of penicillin G and ampicillin were performed on a FLUOstar microplate reader (BMG Labtechnologies) equipped with two sample injectors. Excitation and emission filters of 485 and 520 nm respectively were used. Milk (pasteurized and homogenized, Nestle Dairy Farm) was purchased at a local supermarket. The labeled enzyme was mixed with the milk sample in a 96-well microtiter plate (Corning Costar). The antibiotics were then added to the mixtures by the injectors.
FIGS. 21 and 22 show the results from the time-resolved fluorescence measurements of the labeled enzyme (1.2×10^−7 M) in untreated milk in the presence of various concentrations of penicillin G and ampicillin respectively.

The Km is the concentration of substrate that gives half-maximal velocity. As a reminder, the kcat is the maximal rate divided by the concentration of active sites.

Regarding `CC1(C)S[C@@H]2[C@H](NC(=O)Cc3ccccc3)C(=O)N2[C@H]1C(=O)O` [Penicillin G, penicillin G], in assay [1], the Michaelis constant (Km) came to 72 ± 3 µM and the kcat was found to be 2.07 ± 0.02 s⁻¹. Moreover, at wild-type β-lactamase I, the Km was 48 ± 3 µM and the catalytic constant (kcat) was determined as 2612 ± 320 s⁻¹. In addition, in assay [2], the “fluorescence signal of E166Cf (beta-lactam hydrolysis)” value is listed as “−”. For the same compound, at E166Cf enzyme, the “lowest concentration detected by the labeled enzyme” value is 10^−6 M.
